# Data: patent US20160137639A1, “TRIAZOLE-ISOXAZOLE COMPOUND AND MEDICAL USE THEREOF” (JAPAN TOBACCO INC., priority 2012, published 2016)
# Where two headings read alike, the source gives them in different places.
# Experiments:
# mouse RORγ = target: T1, mouse RORγ (Mus musculus, UniProt P51450); assay: Luciferase reporter gene assay of inhibitory effect against RORγ transcriptional activity (GAL4-mRORγ plasmid in CHO cells); assay type: cell-based
# T1 construct: mouse, NM_011281.2 and from Ile251 to Lys516; expressed in transfected cells; host or cells: CHO cells (transient co-transfection with pG5-Luc reporter)
# T1 sequence (P51450 251-516): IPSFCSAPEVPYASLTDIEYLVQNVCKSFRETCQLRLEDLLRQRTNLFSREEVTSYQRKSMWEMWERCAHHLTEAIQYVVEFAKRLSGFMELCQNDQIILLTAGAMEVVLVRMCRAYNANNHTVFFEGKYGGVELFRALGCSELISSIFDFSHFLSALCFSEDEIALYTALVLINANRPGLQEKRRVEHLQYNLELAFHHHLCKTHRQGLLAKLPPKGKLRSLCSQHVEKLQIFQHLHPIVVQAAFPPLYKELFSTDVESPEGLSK
# Outline: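 CHO cells transiently co-transfected with GAL4-mouse RORγ LBD (Ile251–Lys516) and GAL4-dependent luciferase reporter; eight compound concentrations, 0.1% DMSO, 2 days at 37 °C. Luminescence as %-of-vehicle control; EC50 by curve fit, cytotoxic concentrations excluded.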
# human RORγ = target: T2, human RORγ (Homo sapiens, UniProt P51449); assay: Luciferase reporter gene assay of inhibitory effect against RORγ transcriptional activity (GAL4-hRORγ plasmid in CHO cells); assay type: cell-based
# T2 construct: human, NM_005060.3 and from Ser253 to Lys518; expressed in transfected cells; host or cells: CHO cells (transient co-transfection with pG5-Luc reporter)
# T2 sequence (P51449 253-518): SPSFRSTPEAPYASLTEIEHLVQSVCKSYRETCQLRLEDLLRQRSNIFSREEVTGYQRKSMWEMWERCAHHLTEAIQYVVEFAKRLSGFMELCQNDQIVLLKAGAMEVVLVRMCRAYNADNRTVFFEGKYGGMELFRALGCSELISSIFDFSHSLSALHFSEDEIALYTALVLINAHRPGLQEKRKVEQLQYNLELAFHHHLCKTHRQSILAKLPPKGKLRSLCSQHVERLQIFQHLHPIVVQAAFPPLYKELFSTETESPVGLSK
SMILES,EC50 (mouse RORγ; read-out: LUC EC50 (μM) mRORg) [µM],EC50 (human RORγ; read-out: LUC EC50 (μM) hRORg) [µM],further results
Cc1ccc(NC(=O)CC(CCC(=O)N(C)C)c2nnc(CCCC(C)C)n2C2CC2)c(C)c1 (racemic) [Example F-286],< 3,< 3,–
Cc1ccc(NC(=O)C[C@H](CCC(=O)O)c2noc(-c3cc(C4CC(C)(C)C4)on3)c2C2CC2)c(Cl)c1 [Example E-30],< 3,< 3,–
CC(C)Cn1c(CCC(=O)Nc2cccc3ccccc23)nnc1C1Cc2ccccc2C1 [Example F-11],–,–,EC50 (mouse RORγ; LUC EC50 (μM) mRORg): > 3 µM; EC50 (human RORγ; LUC EC50 (μM) hRORg): > 3 µM
Cc1ccc(NC(=O)C[C@H](CC#N)c2nnc([C@H]3C[C@@H](CC(C)C)C3)n2C2CC2)c(C)c1 [Example F-465],< 3,< 3,–
Cc1ccc(NC(=O)CCc2nnc(-c3cc(CC(C)C)on3)n2C2CC2)c(C)c1 [Example F-405],< 3,< 3,–
Cc1c(NC(=O)C[C@H](OCC(F)(F)F)c2nnc(-c3cc(CC(C)C)on3)n2C2CC2)ccc(F)c1F [Example F-633],–,–,EC50 (mouse RORγ; read-out: LUC EC50 mRORg): < 3 µM; EC50 (human RORγ; read-out: LUC EC50 hRORg): < 3 µM
CC(=O)N1C[C@H](C(=O)Nc2ccc(C)cc2C)[C@@H](c2nnc(CCOC(C)(C)C)n2C2CC2)C1 (racemic) [Example F-222],< 3,> 3,–
CC(=O)NCCC(CC(=O)Nc1ccc(C)cc1C)c1nnc(CCCC(C)C)n1C1CC1 (racemic) [Example F-275],> 3,> 3,–
Cc1ccc(NC(=O)[C@H]2CC(=O)C[C@@H]2c2nnc([C@H]3C[C@@H](CC(C)C)C3)n2C2CC2)c(C)c1 (racemic) [Example F-533],–,–,EC50 (mouse RORγ; read-out: LUC EC50 mRORg): < 3 µM; EC50 (human RORγ; read-out: LUC EC50 hRORg): < 3 µM
Cc1ccc(NC(=O)[C@H]2CCN(C)C[C@@H]2c2nnc(CCCC(C)(C)C)n2C2CC2)c(C)c1 (racemic) [Example F-395],< 3,< 3,–
Cc1ccc(NC(=O)CC(Cc2nc(=O)on2C)c2nnc([C@H]3C[C@@H](CC(C)C)C3)n2C2CC2)c(C)c1 (mixture of isomers) [Example F-485],< 3,< 3,–
Cc1ccc(NC(=O)CCc2nnc(CCCC(C)C)n2C2CC2)c(C)c1 [Example F-215],< 3,< 3,–
Cc1ccc(NC(=O)C[C@H](CCC(=O)O)c2noc(-c3cc(CC(C)C)on3)c2C2CC2)c(Cl)c1 [Example E-01],< 3,< 3,–
CNC(=O)N1C[C@H](C(=O)Nc2ccc(C)cc2C)[C@@H](c2nnc(CCCC(C)(C)C)n2C2CC2)C1 (racemic) [Example F-446],< 3,< 3,–
CC(=O)N1C[C@H](C(=O)Nc2ccc(C)cc2C)[C@@H](c2nnc(CCC3CCCCC3)n2C2CC2)C1 [Example F-402],< 3,< 3,–
C=C1C[C@H](C(=O)Nc2ccc(C)cc2C)[C@@H](c2nnc([C@H]3C[C@@H](CC(C)C)C3)n2C2CC2)C1 (racemic) [Example F-517],–,–,EC50 (mouse RORγ; read-out: LUC EC50 mRORg): < 3 µM; EC50 (human RORγ; read-out: LUC EC50 hRORg): < 3 µM
Cc1cc(Cl)ccc1NC(=O)C[C@H](CCO)c1nnc(C2CC3(CCC(F)(F)CC3)C2)n1C1CC1 [Example F-624],–,–,EC50 (mouse RORγ; read-out: LUC EC50 mRORg): < 3 µM; EC50 (human RORγ; read-out: LUC EC50 hRORg): < 3 µM
Cc1c(Cl)cccc1NC(=O)CCc1nnc(C2CC(C)C2)n1C1CC1 (mixture of isomers) [Example F-168],< 3,> 3,–
CC(=O)NCCCC(CC(=O)Nc1ccc(C)cc1C)c1nnc(CCCC(C)C)n1C1CC1 (racemic) [Example F-287],> 3,> 3,–
Cc1ccc(NC(=O)CCc2nnc([C@H]3C[C@H](CC(C)(C)C)C3)n2C2CC2)c(C)c1 [Example F-425],< 3,< 3,–
Cc1cc(F)ccc1NC(=O)CCc1nnc(CCC(C)C)n1C1CC1 [Example F-137],< 3,> 3,–
CCn1c(CCC(=O)Nc2cccc3ccccc23)nnc1C1Cc2ccccc2C1 [Example F-1],< 3,< 3,–

SMILES,EC50 (mouse RORγ; read-out: LUC EC50 (μM) mRORg) [µM],EC50 (human RORγ; read-out: LUC EC50 (μM) hRORg) [µM],further results
Cc1noc(NC(=O)C[C@H](CCC(=O)O)c2noc([C@H]3C[C@@H](CC(C)(C)C)C3)c2C2CC2)c1C [Example F-679],–,–,EC50 (mouse RORγ; read-out: LUC EC50 mRORg): < 3 µM; EC50 (human RORγ; read-out: LUC EC50 hRORg): < 3 µM
"Cc1ccc(NC(=O)[C@H]2CC(C)(O)C[C@@H]2c2nnc([C@H]3C[C@@H](CC(C)C)C3)n2C2CC2)c(C)c1 (single isomer, unassigned) [Example F-565]",–,–,EC50 (mouse RORγ; read-out: LUC EC50 mRORg): < 3 µM; EC50 (human RORγ; read-out: LUC EC50 hRORg): < 3 µM
"Cc1ccc(NC(=O)C(C)C(CCO)c2nnc([C@H]3C[C@@H](CC(C)C)C3)n2C2CC2)c(C)c1 (single isomer, unassigned) [Example F-492]",> 3,> 3,–
Cc1ccc(NC(=O)C[C@H](CCC(=O)O)c2noc(-c3cc(CC(C)C)n(C)n3)c2C2CC2)c(Cl)c1 [Example E-26],< 3,< 3,–
"Cc1ccc(NC(=O)[C@@H]2CC(C)(O)C[C@H]2c2nnc([C@H]3C[C@@H](CC(C)C)C3)n2C2CC2)c(C)c1 (single isomer, unassigned) [Example F-564]",–,–,EC50 (mouse RORγ; read-out: LUC EC50 mRORg): < 3 µM; EC50 (human RORγ; read-out: LUC EC50 hRORg): < 3 µM
Cc1ccc(NC(=O)[C@H]2CCCN[C@@H]2c2nnc(CCCC(C)(C)C)n2C2CC2)c(C)c1 [Example F-309],< 3,< 3,–
Cc1cc(C)c(NC(=O)C[C@H](CCC(=O)O)c2noc([C@H]3C[C@@H](CC(C)(C)C)C3)c2C2CC2)cn1 [Example F-675],–,–,EC50 (mouse RORγ; read-out: LUC EC50 mRORg): < 3 µM; EC50 (human RORγ; read-out: LUC EC50 hRORg): < 3 µM
Cc1c(Cl)cccc1NC(=O)CC(CC(=O)O)c1nnc(CCCC(C)C)n1C1CC1 (racemic) [Example F-213],> 3,> 3,–
CC(=O)N1C[C@H](C(=O)Nc2ccc(Cl)cc2F)[C@@H](c2nnc([C@H]3C[C@@H](CC(C)C)C3)n2C2CC2)C1 [Example F-604],–,–,EC50 (mouse RORγ; read-out: LUC EC50 mRORg): < 3 µM; EC50 (human RORγ; read-out: LUC EC50 hRORg): < 3 µM
CCCC(CC(=O)Nc1cccc(Cl)c1C)c1nnc(CCC(C)C)n1C1CC1 (racemic) [Example F-194],< 3,< 3,–
CCn1c(CCC(=O)Nc2cccc3c2CCCC3)nnc1C1Cc2ccccc2C1 [Example F-7],< 3,> 3,–
Cc1ccc(NC(=O)[C@H]2CN(S(=O)(=O)C(F)(F)F)C[C@@H]2c2nnc(CCCC(C)(C)C)n2C2CC2)c(C)c1 (racemic) [Example F-398],< 3,< 3,–
C=CCOc1ccc(-c2nnc(CCC(=O)Nc3ccc(C)cc3C)n2C2CC2)cc1 [Example F-460],> 3,> 3,–
CC(=O)N1C[C@H](C(=O)Nc2ccc(C)cc2C)[C@@H](c2nnc(CCCC(C)C)n2C2CC2)C1 (racemic) [Example F-220],< 3,< 3,–
COc1cc(C)ccc1CNC(=O)CC(CCO)c1nnc(CCC2CCCCC2)n1C1CC1 (racemic) [Example F-249],< 3,< 3,–
Cc1c(Cl)cccc1NC(=O)CCc1nnc(CCOC(C)(C)C)n1C1CC1 [Example F-163],< 3,< 3,–
Cc1cc(Cl)ccc1NC(=O)CCc1nnc(CCC(C)C)n1C1CC1 [Example F-138],< 3,> 3,–
CC(C)(C)Cc1cc(-c2onc([C@@H](CCC(=O)O)CC(=O)Nc3ccc(Cl)cc3Cl)c2C2CC2)no1 [Example E-78],–,–,EC50 (mouse RORγ; read-out: LUC EC50 mRORg): < 3 µM; EC50 (human RORγ; read-out: LUC EC50 hRORg): < 3 µM
CCC(C)CCc1nnc(CCC(=O)Nc2ccc(C)cc2C)n1C1CC1 (racemic) [Example F-236],< 3,> 3,–
CC(C)CCc1nnc(CCC(=O)Nc2nnc3ccccn23)n1C1CC1 [Example F-139],> 3,> 3,–
Cc1c(Cl)cccc1NC(=O)CC(CO)c1nnc(CCC(C)C)n1C1CC1 (racemic) [Example F-167],< 3,< 3,–
